This note sets out measurements from US9458106B2, “Phenyl-pyridine/pyrazine amides for the treatment of cancer” (Hoffmann-La Roche Inc., priority 2013, dated 2016).

The first assay deals with T1, CDK8/Cyclin C (Homo sapiens, UniProt P49336).
T1 construct: purchased Invitrogen PV4402
T1 sequence (P49336 whole entry): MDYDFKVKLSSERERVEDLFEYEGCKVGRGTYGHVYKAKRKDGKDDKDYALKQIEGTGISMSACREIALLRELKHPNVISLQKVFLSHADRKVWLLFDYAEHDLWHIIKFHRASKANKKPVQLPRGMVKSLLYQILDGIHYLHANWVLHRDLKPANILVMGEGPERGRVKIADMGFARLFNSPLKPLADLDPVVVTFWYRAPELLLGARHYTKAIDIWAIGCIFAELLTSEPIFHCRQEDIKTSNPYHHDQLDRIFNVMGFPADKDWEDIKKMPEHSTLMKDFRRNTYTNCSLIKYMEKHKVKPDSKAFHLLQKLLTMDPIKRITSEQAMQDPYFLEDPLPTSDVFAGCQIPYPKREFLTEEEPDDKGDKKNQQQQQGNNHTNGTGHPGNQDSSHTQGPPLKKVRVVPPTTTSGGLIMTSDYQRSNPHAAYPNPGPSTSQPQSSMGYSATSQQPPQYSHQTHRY
T1 sequence (P24863 whole entry partner): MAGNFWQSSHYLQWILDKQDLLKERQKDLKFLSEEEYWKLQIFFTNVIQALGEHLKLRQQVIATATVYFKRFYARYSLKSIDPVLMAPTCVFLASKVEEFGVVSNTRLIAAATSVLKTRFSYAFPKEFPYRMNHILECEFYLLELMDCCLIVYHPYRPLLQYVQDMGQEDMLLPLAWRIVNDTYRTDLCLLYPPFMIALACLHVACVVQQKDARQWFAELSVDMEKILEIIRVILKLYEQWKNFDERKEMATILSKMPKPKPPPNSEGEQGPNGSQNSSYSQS
The assay is described as follows: CDK8/Cyclin C LANCE TR-FRET kinase assay. Type of assay: biochemical. The note with it: CDK8/Cyclin C 10 nM, ATP 24 μM, Ulight-GS peptide 80 nM, 37° C. 30 mins. The text has this:
CDK8/Cyclin C LANCE TR-FRET Kinase Assay
The biological activity of the compounds of the invention can be determined using the assay described below.
CDK8/Cyclin C protein was obtained from Invitrogen, cat #PV4402. ULight-Glycogen Synthase (Ulight-GS) peptide with sequence PASVPPSPSLSRHSSPHQ(pS)ED, and Europium-anti-phospho Glycogen Synthase (Ser641) [Eu-anti-P-GS (Ser641)] were obtained from Perkin Elmer, cat #TRF0131-M and cat #TRF0220. Adenosine-5′-triphosphate (ATP) was obtained from Invitrogen, cat #PV3227.
A mixture of (1) a compound of formula I, (2) substrate [Ulight-GS peptide (80 nM) and ATP (24 μM)], and (3) CDK8/Cyclin C (10 nM) in reaction buffer (50 mM Hepes, pH7.0, 10 mM MgCl2, 1 mM EGTA, 0.2 mg/mL BSA, 0.8 mM DTT) were incubated at 37° C. for 30 mins. Then, [Eu-anti-P-GS (Ser641)] (1.5 nM) was added. Following incubation at RT for 30 mins, the TR-FRET signals were detected using Envision reader (Ex 340 nm, Em 615 nm and 665 nm) from Perkin Elmer. The reactivity in percentage of inhibition or dose response was analyzed with GraphPad Prism 5 (GraphPad Software).
On the technique in general: Time-resolved FRET reads energy transfer from a long-lived donor to a nearby acceptor.
Turning to `NC(=O)[C@H](Nc1cncc(-c2cc(Cl)ccc2F)c1)c1ccccc1` [Example 1, (R)-2-[5-(5-Chloro-2-fluoro-phenyl)-pyridin-3-ylamino]-2-phenyl-cetamide], the IC50 was 91.7 nM. That is a double-digit nanomolar value.

Compound `NC(=O)C(Nc1cncc(-c2cc(Cl)ccc2F)n1)c1ccccc1` (centres unmarked) [Example 29, 2-[6-(5-Chloro-2-fluoro-phenyl)-pyrazin-2-ylamino]-2-phenyl-acetamide] came in with an IC50 of 123 nM.

In turn, `Cc1ccncc1-c1cncc(NC(C(N)=O)c2ccccc2)c1` (centres unmarked) [Example 5, 2-(4′-Methyl-[3,3′]bipyridinyl-5-ylamino)-2-phenyl-acetamide] came in with an IC50 of 133 nM.

The compound `NC(=O)[C@@H](Nc1cncc(-c2ccc(O)c(Cl)c2)c1)c1ccccc1` [Example 4, (S)-2-[5-(3-Chloro-4-hydroxy-phenyl)-pyridin-3-ylamino]-2-phenyl-acetamide] had an IC50 of 471 nM. This IC50 lies about 3.5-fold higher than the previous one.

Take `Cc1cccc(C(Nc2cncc(-c3cc(Cl)ccc3F)c2)C(N)=O)c1` (centres unmarked) [Example 13, 2-[5-(5-Chloro-2-fluoro-phenyl)-pyridin-3-ylamino]-2-m-tolyl-acetamide]: half-maximal inhibition (IC50) required 566 nM.

Consider `NC(=O)C(Nc1cncc(-c2ccc(F)c(Cl)c2)c1)c1ccccc1` (centres unmarked) [Example 8, 2-[5-(3-Chloro-4-fluoro-phenyl)-pyridin-3-ylamino]-2-phenyl-acetamide], for which the IC50 was found to be 2340 nM.

`NC(=O)[C@H](Nc1cncc(-c2cc(Cl)ccc2F)n1)c1ccccc1` [Example 30, (R)-2-[6-(5-Chloro-2-fluoro-phenyl)-pyrazin-2-ylamino]-2-phenyl-aceamide] returned an IC50 of 54.7 nM. Against the preceding compound, the IC50 is about 43-fold lower.

`Cc1ccc(C(Nc2cncc(-c3cc(Cl)ccc3F)c2)C(N)=O)cc1` (centres unmarked) [Example 18, 2-[5-(5-Chloro-2-fluoro-phenyl)-pyridin-3-ylamino]-2-p-tolyl-acetamide] came in with an IC50 of 240 nM.

`NC(=O)[C@@H](Nc1cncc(-c2ccc(O)c(Cl)c2)n1)c1ccccc1` [Example 28, (S)-2-[6-(3-Chloro-4-hydroxy-phenyl)-pyrazin-2-ylamino]-2-phenyl-acetamide] gave an IC50 of 32.9 nM.

In turn, `NC(=O)C(Nc1cncc(-c2cc(Cl)c(F)cc2F)c1)c1ccccc1` (centres unmarked) [Example 23, 2-[5-(5-Chloro-2,4-difluoro-phenyl)-pyridin-3-ylamino]-2-phenyl-acetamide] returned an IC50 of 721 nM.

In the case of `COc1ccc(F)c(-c2cncc(NC(C(N)=O)c3ccccc3)c2)c1` (centres unmarked) [Example 16, 2-[5-(2-Fluoro-5-methoxy-phenyl)-pyridin-3-ylamino]-2-phenyl-acetamide], the IC50 came out at 264 nM.

`COc1cccc(C(Nc2cncc(-c3cc(Cl)ccc3F)c2)C(N)=O)c1` (centres unmarked) [Example 21, 2-[5-(5-Chloro-2-fluoro-phenyl)-pyridin-3-ylamino]-2-(3-methoxy-phenyl)-acetamide]: the midpoint of inhibition, the IC50, lay at 101 nM.

In the case of `NC(=O)C(Nc1cncc(-c2cc(Cl)ccc2F)c1)c1ccccn1` (centres unmarked) [Example 24, 2-[5-(5-Chloro-2-fluoro-phenyl)-pyridin-3-ylamino]-2-pyridin-2-yl-acetamide], half-maximal inhibition (IC50) required 2110 nM. Compared with the last compound, the IC50 is about 21-fold higher.

Regarding `NC(=O)C(Nc1cncc(-c2cc(Cl)ccc2F)c1)c1ccsc1` (centres unmarked) [Example 17, 2-[5-(5-Chloro-2-fluoro-phenyl)-pyridin-3-ylamino]-2-thiophen-3-yl-acetamide], the IC50 worked out at 54.2 nM.

Consider `NC(=O)[C@@H](Nc1cncc(-c2cc(Cl)ccc2F)n1)c1ccccc1` [Example 31, (S)-2-[6-(5-Chloro-2-fluoro-phenyl)-pyrazin-2-ylamino]-2-phenyl-acetamide], for which inhibition was half-maximal at 828 nM (IC50). Compared with the last compound, the IC50 is about 15-fold higher.

Turning to `NC(=O)C(Nc1cncc(-c2cc(Cl)ccc2F)c1)c1cccs1` (centres unmarked) [Example 25, 2-[5-(5-Chloro-2-fluoro-phenyl)-pyridin-3-ylamino]-2-thiophen-2-yl-acetamide], the IC50 worked out at 85.4 nM.

Consider `NC(=O)C(Nc1cncc(-c2ccc(O)c(Cl)c2)n1)c1ccccc1` (centres unmarked) [Example 26, 2-[6-(3-Chloro-4-hydroxy-phenyl)-pyrazin-2-ylamino]-2-phenyl-acetamide], for which the IC50 is 4.8 nM.

Consider `NC(=O)C(Nc1cncc(-c2ccc(O)c(Cl)c2)c1)c1ccccc1` (centres unmarked) [Example 2, 2-[5-(3-Chloro-4-hydroxy-phenyl)-pyridin-3-ylamino]-2-phenyl-acetamide], for which the IC50 amounted to 105 nM.

Regarding `COc1cc(-c2cncc(NC(C(N)=O)c3ccccc3)c2)ccn1` (centres unmarked) [Example 6, 2-(2′-Methoxy-[3,4′]bipyridinyl-5-ylamino)-2-phenyl-acetamide], the IC50 was 2170 nM.

`NC(=O)C(Nc1cncc(-c2cc(Cl)ccc2F)c1)c1ccccc1Cl` (centres unmarked) [Example 14, 2-[5-(5-Chloro-2-fluoro-phenyl)-pyridin-3-ylamino]-2-(2-chloro-phenyl)-acetamide] yielded a 50% inhibitory concentration (IC50) of 11 nM.

Take `CCOc1ccc(F)c(-c2cncc(NC(C(N)=O)c3ccccc3)c2)c1` (centres unmarked) [Example 7, 2-[5-(5-Ethoxy-2-fluoro-phenyl)-pyridin-3-ylamino]-2-phenyl-acetamide]: half-maximal inhibition (IC50) required 1100 nM.

As for `NC(=O)C(Nc1cncc(-c2cc(Cl)ccc2F)c1)c1ccc(Cl)cc1` (centres unmarked) [Example 20, 2-[5-(5-Chloro-2-fluoro-phenyl)-pyridin-3-ylamino]-2-(4-chloro-phenyl)-acetamide], inhibition was half-maximal at 1080 nM (IC50).

`NC(=O)[C@H](Nc1cncc(-c2ccc(O)c(Cl)c2)c1)c1ccccc1` [Example 3, (R)-2-[5-(3-Chloro-4-hydroxy-phenyl)-pyridin-3-ylamino]-2-phenyl-acetamide]: the IC50 came to 7.1 nM.

`COc1cccc(-c2cncc(N[C@@H](C(N)=O)c3ccccc3)n2)c1` [Example 33, (R)-2-[6-(3-Methoxy-phenyl)-pyrazin-2-ylamino]-2-phenyl-acetamide] displayed an IC50 of 567 nM.

The compound `NC(=O)C(Nc1cncc(-c2cc(Cl)ccc2F)c1)c1ccccc1F` (centres unmarked) [Example 12, 2-[5-(5-Chloro-2-fluoro-phenyl)-pyridin-3-ylamino]-2-(2-fluoro-phenyl)-acetamide] registered an IC50 of 38.5 nM.

For the compound `COc1cc(-c2cncc(NC(C(N)=O)c3ccccc3)c2)c(F)cn1` (centres unmarked) [Example 9, 2-(5′-Fluoro-2′-methoxy-[3,4′]bipyridinyl-5-ylamino)-2-phenyl-acetamide], half-maximal inhibition (IC50) required 1150 nM.

`NC(=O)C(Nc1cncc(-c2cncc(Cl)c2)c1)c1ccccc1` (centres unmarked) [Example 10, 2-(5′-Chloro-[3,3′]bipyridinyl-5-ylamino)-2-phenyl-acetamide] gave an IC50 of 1390 nM.

`CS(=O)(=O)NC(=O)C(Nc1cncc(-c2cc(Cl)ccc2F)c1)c1ccccc1` (centres unmarked) [Example 22, N-{2-[5-(5-Chloro-2-fluoro-phenyl)-pyridin-3-ylamino]-2-phenyl-acetyl}-methanesulfonamide] returned an IC50 of 7740 nM.

Compound `NC(=O)C(Nc1cncc(-c2cc(Cl)ccc2F)c1)c1cccc(Cl)c1` (centres unmarked) [Example 19, 2-[5-(5-Chloro-2-fluoro-phenyl)-pyridin-3-ylamino]-2-(3-chloro-phenyl)-acetamide] had an IC50 of 432 nM.

The compound `NC(=O)[C@H](Nc1cncc(-c2ccc(O)c(Cl)c2)n1)c1ccccc1` [Example 27, (R)-2-[6-(3-Chloro-4-hydroxy-phenyl)-pyrazin-2-ylamino]-2-phenyl-acetamide] yielded an IC50 of 2.8 nM.

Compound `Cc1ccccc1C(Nc1cncc(-c2cc(Cl)ccc2F)c1)C(N)=O` (centres unmarked) [Example 11, 2-[5-(5-Chloro-2-fluoro-phenyl)-pyridin-3-ylamino]-2-o-tolyl-acetamide] had an IC50 of 35.9 nM.

In the case of `COc1cccc(-c2cncc(NC(C(N)=O)c3ccccc3)n2)c1` (centres unmarked) [Example 32, 2-[6-(3-Methoxy-phenyl)-pyrazin-2-ylamino]-2-phenyl-acetamide], the concentration for half-maximal inhibition (IC50) worked out at 430 nM.

On to `NC(=O)C(Nc1cncc(-c2cc(Cl)ccc2F)c1)c1cc(F)ccc1F` (centres unmarked) [Example 15, 2-[5-(5-Chloro-2-fluoro-phenyl)-pyridin-3-ylamino]-2-(2,5-difluoro-phenyl)-acetamide], for which the IC50 turned out to be 123 nM.

The subject of the next assay is HCT116 (colorectal cancer). The assay is described as follows: In vitro cell proliferation assay (CCK-8), HCT116. In kind it is cell-based. The settings on record: Homo sapiens, HCT-116, HCT116 cells, 72 hours. As for the experimental part:
(§1) In Vitro Cell Proliferation Assay
(§2) Cells were seeded on 96-well plates at 5×10^3 cells per well and precultured for 24 hours. The cells were treated with serial diluted compounds and cultured for 72 hours. Then all media was discarded and after that, 100 μL 1:10 (v/v) Cell Counting Kit-8 (CCK-8)-culture media solution was added to the wells. Plate was developed for 2 hrs in an incubator, and the absorbance was measured at 450 nm wavelengths with SpectraMAX190 (MDS, Sunnyvale, Calif.). The inhibition rate (IR) of the tested compounds was determined with following formula: IR (%)=(ODDMSO−ODcompound)/ODDMSO×100%. The concentration corresponding to 50% IR (IC50) was determined with plot curve of IR against tested compound concentrations with SoftMax Pro.
For the compound `NC(=O)[C@H](Nc1cncc(-c2cc(Cl)ccc2F)c1)c1ccccc1` [Example 1, (R)-2-[5-(5-Chloro-2-fluoro-phenyl)-pyridin-3-ylamino]-2-phenyl-cetamide], the IC50 turned out to be 2610 nM.

`NC(=O)[C@H](Nc1cncc(-c2ccc(O)c(Cl)c2)c1)c1ccccc1` [Example 3, (R)-2-[5-(3-Chloro-4-hydroxy-phenyl)-pyridin-3-ylamino]-2-phenyl-acetamide]: the IC50 came to 740 nM. Compared with the last compound, the IC50 is about 3.5-fold lower.

Another assay has as its system DLD-1 (colorectal cancer). The assay is described as follows: In vitro cell proliferation assay (CCK-8), DLD-1. The settings on record: Homo sapiens, DLD-1 cells, 72 hours. In kind it is cell-based. As to the method:
as §1, §2
Compound `NC(=O)[C@H](Nc1cncc(-c2ccc(O)c(Cl)c2)c1)c1ccccc1` [Example 3, (R)-2-[5-(3-Chloro-4-hydroxy-phenyl)-pyridin-3-ylamino]-2-phenyl-acetamide] had an IC50 of 0.604 µM. That is a sub-micromolar value.

In the next assay the test system is AGS (gastric cancer). The assay is described as follows: In vitro cell proliferation assay (CCK-8), AGS. Type of assay: cell-based. The settings on record: Homo sapiens, AGS cells, 72 hours. As for the experimental part:
as §1, §2
As for `NC(=O)[C@H](Nc1cncc(-c2cc(Cl)ccc2F)c1)c1ccccc1` [Example 1, (R)-2-[5-(5-Chloro-2-fluoro-phenyl)-pyridin-3-ylamino]-2-phenyl-cetamide], the IC50 is 2.66 µM. That is a single-digit micromolar value.

With `NC(=O)[C@H](Nc1cncc(-c2ccc(O)c(Cl)c2)c1)c1ccccc1` [Example 3, (R)-2-[5-(3-Chloro-4-hydroxy-phenyl)-pyridin-3-ylamino]-2-phenyl-acetamide], half-maximal inhibition (IC50) required 0.517 µM.

By IC50 is commonly meant the concentration that inhibits the measured activity by half. A lower IC50 goes with greater potency in that assay.
